Legend:
H2-receptor [1] = target: T1, H2-receptor (Homo sapiens, UniProt P25021); details: cited from earlier work
H2-receptor [2] = target: T1, H2-receptor; details: cited from earlier work; remark: listed apart in the source
[3] = Method: Peripheral blood venous samples were drawn in 10 ml heparinized test tubes before the onset of treatment and weekly thereafter. […] The manufacturer's instructions provided with the kit, dated June, 1989, were followed. Blood histamine levels were measured at the indicated times.
[4] = tested on: herpes simplex virus (HSV) type 2; details: animals inoculated intravenously with HSV; cited from earlier work
[5] = prior reports; cited from earlier work
[6] = Effect of rate and duration of histamine administration on side effects and efficacy; details: administered over longer than about 30 minutes
[7] = tested on: Acute Myelogenous Leukernia; details: IL-2 as the single agent; cited from earlier work

T1 sequence (P25021 whole entry): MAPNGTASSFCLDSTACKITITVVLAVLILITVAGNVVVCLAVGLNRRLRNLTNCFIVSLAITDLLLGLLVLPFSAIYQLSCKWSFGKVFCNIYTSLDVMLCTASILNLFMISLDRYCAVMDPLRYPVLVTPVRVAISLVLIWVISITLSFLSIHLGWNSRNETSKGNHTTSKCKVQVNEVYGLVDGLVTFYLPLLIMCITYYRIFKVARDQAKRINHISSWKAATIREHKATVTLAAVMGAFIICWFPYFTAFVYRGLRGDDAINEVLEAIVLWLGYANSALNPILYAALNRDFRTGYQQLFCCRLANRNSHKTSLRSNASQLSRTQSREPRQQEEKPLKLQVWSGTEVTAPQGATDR

Compound: CN(C)CCCSC(=N)N [dimaprit]
- effect of histamine on granulocyte mediated suppression of antibody dependent cytotoxicity of NK cells (H2-receptor [1]): mimicked
- NK cell mediated cytotoxicity (H2-receptor [2]): capable of augmenting NK cell mediated cytotoxicity

Compound: NCCc1c[nH]cn1 [histamine]
- persistence of circulating blood histamine levels ([3]; even after histamine administration was discontinued): remained elevated for sustained periods of time
- circulating blood histamine levels following histamine administration ([3]; histamine 0.4-0.7 mg s.c. twice daily with IL-2 for 21 days, samples at least 8 hours after last injection, beneficial = at least 0.2 μmole/L): rose to beneficial levels
- survival time [4]: prolong survival time
- half life in the blood [5]: five
- efficacy on prolonged administration [6]: decreased or lack of efficacy

Compound: CNC(=C[N+](=O)[O-])NCCSCc1ccc(CN(C)C)o1 [ranitidine]
- effect of histamine on granulocyte mediated suppression of antibody dependent cytotoxicity of NK cells (H2-receptor [1]): blocked

Compound: IL-2: cytokine synthesized by T cells; human recombinant interleukin-2 (Proleukin, Eurocetus)
- fraction of AML patients with inversion of remission time [7]: < 10%

Reference: patent publication US6613788B1, “Elevation of circulating blood histamine levels” (Maxim Pharmaceuticals, Inc., priority 1996, dated 2003)
